Results reported in BindingDB's records for doi:10.1016/j.bioorg.2015.06.004 (University of Karachi, 2015).

Target: Urease [D459Y,K653P] (Canavalia ensiformis, UniProt P07374, D459Y/K653P)
Assay: Urease Inhibition Assay
Conditions: pH 8.2
Protocol: The mixture of this enzyme inhibition assay was composed of 10 µL of enzyme (5 U/mL) and 10 µL of each test compound in the series (3a-3s) in 40 µL buffer (100 mM urea, 0.01 M K2HPO4, 1 mM EDTA and 0.01 M […], pH 8.2). The resulting mixture in for each test compound was incubated for 30 min at 37 °C in 96-well plates. Subsequently, the phenol reagents (40 µL) (1%, w/v phenol and 0.005%, w/v sodium nitroprusside) and alkali reagent (40 µL) (0.5%, w/v NaOH and 0.1% active chloride NaOCl) were dropped down into each well. The absorbance of the colored resultant mixtures was measured after 30 min at 625 nm.

Urease [D459Y,K653P], sequence (P07374 whole entry D459Y/K653P): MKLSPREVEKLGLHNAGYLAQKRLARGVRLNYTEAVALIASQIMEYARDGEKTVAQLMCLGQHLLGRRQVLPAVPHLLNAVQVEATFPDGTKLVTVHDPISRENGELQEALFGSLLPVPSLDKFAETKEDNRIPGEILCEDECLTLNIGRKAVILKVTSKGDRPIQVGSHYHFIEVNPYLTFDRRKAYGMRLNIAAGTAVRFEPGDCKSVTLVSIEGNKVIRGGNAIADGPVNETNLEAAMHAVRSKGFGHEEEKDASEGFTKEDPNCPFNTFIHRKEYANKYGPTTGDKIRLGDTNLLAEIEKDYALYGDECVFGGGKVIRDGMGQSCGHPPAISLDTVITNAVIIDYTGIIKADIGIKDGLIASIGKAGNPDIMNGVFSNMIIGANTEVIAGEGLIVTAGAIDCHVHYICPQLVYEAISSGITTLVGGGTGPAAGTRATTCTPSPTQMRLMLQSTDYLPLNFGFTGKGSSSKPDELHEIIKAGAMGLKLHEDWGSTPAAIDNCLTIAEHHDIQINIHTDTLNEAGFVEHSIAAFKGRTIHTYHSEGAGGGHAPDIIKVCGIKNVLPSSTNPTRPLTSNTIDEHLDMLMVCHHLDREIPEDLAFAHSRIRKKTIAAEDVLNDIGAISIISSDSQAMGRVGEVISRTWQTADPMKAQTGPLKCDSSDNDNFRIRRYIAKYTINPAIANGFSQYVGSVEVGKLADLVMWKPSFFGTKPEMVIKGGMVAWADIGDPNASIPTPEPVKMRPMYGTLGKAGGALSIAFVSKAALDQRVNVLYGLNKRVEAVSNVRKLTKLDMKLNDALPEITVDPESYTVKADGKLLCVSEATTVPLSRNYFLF

SMILES | IC50 [nM]
CC(=NNC(=S)Nc1cccc(C)c1)c1cc2ccccc2o1 [1-[1-(2-benzofuranyl)ethylideneamino]-3-(3-methylphenyl)thiourea] | 283
CC(=NNC(=S)Nc1ccc(Cl)cc1Cl)c1cc2ccccc2o1 [2-(1-(Benzofuran-2-yl)ethylidene)-N-(2,4-dichlorophenyl)-hydrazinecarbothioamide (3c)] | 592
CC(=NNC(=S)Nc1ccc(F)cc1F)c1cc2ccccc2o1 [2-(1-(Benzofuran-2-yl)ethylidene)-N-(2,4-difluorophenyl)hydrazinecarbothioamide (3h)] | 387
CC(=NNC(=S)Nc1cc(Cl)ccc1Cl)c1cc2ccccc2o1 [2-(1-(Benzofuran-2-yl)ethylidene)-N-(2,5-dichlorophenyl)-hydrazinecarbothioamide (3d)] | 2010
CC(=NNC(=S)Nc1ccccc1Br)c1cc2ccccc2o1 [2-(1-(Benzofuran-2-yl)ethylidene)-N-(2-bromophenyl)hydrazinecarbothioamide (3j)] | 564
CC(=NNC(=S)Nc1ccccc1F)c1cc2ccccc2o1 [2-(1-(Benzofuran-2-yl)ethylidene)-N-(2-fluorophenyl)hydrazinecarbothioamide (3g)] | 321
COc1ccccc1NC(=S)NN=C(C)c1cc2ccccc2o1 [2-(1-(Benzofuran-2-yl)ethylidene)-N-(2-methoxyphenyl)hydrazinecarbothioamide (3o)] | 24000
CC(=NNC(=S)Nc1ccccc1C)c1cc2ccccc2o1 [2-(1-(Benzofuran-2-yl)ethylidene)-N-(2-methylphenyl)hydrazinecarbothioamide (3p)] | 314
CC(=NNC(=S)Nc1cccc(Br)c1)c1cc2ccccc2o1 [2-(1-(Benzofuran-2-yl)ethylidene)-N-(3-bromophenyl)hydrazinecarbothioamide (3i)] | 10900
CC(=NNC(=S)Nc1cccc(Cl)c1)c1cc2ccccc2o1 [2-(1-(Benzofuran-2-yl)ethylidene)-N-(3-chlorophenyl)hydrazinecarbothioamide (3b)] | 1130
CC(=NNC(=S)Nc1cccc(F)c1)c1cc2ccccc2o1 [2-(1-(Benzofuran-2-yl)ethylidene)-N-(3-fluorophenyl)hydrazinecarbothioamide (3f)] | 1150
COc1cccc(NC(=S)NN=C(C)c2cc3ccccc3o2)c1 [2-(1-(Benzofuran-2-yl)ethylidene)-N-(3-methoxyphenyl)hydrazinecarbothioamide (3n)] | 102
CC(=NNC(=S)Nc1cccc([N+](=O)[O-])c1)c1cc2ccccc2o1 [2-(1-(Benzofuran-2-yl)ethylidene)-N-(3-nitrophenyl)hydrazinecarbothioamide (3k)] | 77
CC(=NNC(=S)Nc1ccc(F)cc1)c1cc2ccccc2o1 [2-(1-(Benzofuran-2-yl)ethylidene)-N-(4-fluorophenyl)hydrazinecarbothioamide (3e)] | 177
COc1ccc(NC(=S)NN=C(C)c2cc3ccccc3o2)cc1 [2-(1-(Benzofuran-2-yl)ethylidene)-N-(4-methoxyphenyl)hydrazinecarbothioamide (3m)] | 2610
CC(=NNC(=S)Nc1ccc([N+](=O)[O-])cc1)c1cc2ccccc2o1 [2-(1-(Benzofuran-2-yl)ethylidene)-N-(4-nitrophenyl)hydrazinecarbothioamide (3l)] | 181
CC(=NNC(=S)Nc1ccccc1)c1cc2ccccc2o1 [2-(1-(Benzofuran-2-yl)ethylidene)-N-phenylhydrazinecarbothioamide (3a)] | 89
C=CCNC(=S)NN=C(C)c1cc2ccccc2o1 [N-Allyl-2-(1-(benzofuran-2-yl)ethylidene)hydrazinecarbothioamide (3s)] | 694
CC(=NNC(=S)Nc1ccc(C)cc1)c1cc2ccccc2o1 [SMR000377934] | 3470
